What was measured:
Staphylococcus aureus = assay: in vitro antibacterial activity (MIC), Staphylococcus aureus; format: cell-based; conditions: 24 hours
Protocol: (§1) In Table I, below, the results of in vitro tests are summarized. For this test each organism is innoculated in a series of test tubes containing nutrient medium and varying concentrations of Antibiotic UK-58,852 to determine the minimal concentration of the compound in mcg./ml. which inhibits the growth of the organism over a period of 24 hours (MIC).

Streptococcus faecalis = assay: in vitro antibacterial activity (MIC), Streptococcus faecalis; format: cell-based; conditions: strain 02A006; 24 hours
Streptococcus pyogenes = assay: in vitro antibacterial activity (MIC), Streptococcus pyogenes; format: cell-based; conditions: strain 020303; 24 hours
Actinomyces pyogenes = assay: in vitro antibacterial activity (MIC), Actinomyces pyogenes; format: cell-based; conditions: strain 14D011; 24 hours
[1] = tested on: Actinobacillus pleuropneumoniae; assay: in vitro antibacterial activity (MIC), Actinobacillus pleuropneumoniae; format: cell-based; conditions: 24 hours
Pasteurella multocida = assay: in vitro antibacterial activity (MIC), Pasteurella multocida; format: cell-based; conditions: strain 59A006; 24 hours
Bacteroides fragilis = assay: in vitro antibacterial activity (MIC), Bacteroides fragilis; format: cell-based; conditions: strain 78C024; 24 hours
[2] = tested on: Fusobacterium necrophorum; assay: in vitro antibacterial activity (MIC), Fusobacterium necrophorum; format: cell-based; conditions: strain 84C004; 24 hours
Treponema hyodysenteriae = assay: in vitro antibacterial activity (MIC), Treponema hyodysenteriae; format: cell-based; conditions: strain 94A007; 24 hours
Escherischia coli = assay: in vitro antibacterial activity (MIC), Escherischia coli; format: cell-based; conditions: gram-negative; 24 hours
Protocol: as §1

Pseudomonas aeruginosa = assay: in vitro antibacterial activity (MIC), Pseudomonas aeruginosa; format: cell-based; conditions: gram-negative; 24 hours
Protocol: as §1

Klebsiella pneumoniae = assay: in vitro antibacterial activity (MIC), Klebsiella pneumoniae; format: cell-based; conditions: gram-negative; 24 hours
Protocol: as §1

Serratia marcescens = assay: in vitro antibacterial activity (MIC), Serratia marcescens; format: cell-based; conditions: gram-negative; 24 hours
Protocol: as §1

[3] = tested on: Enterobacteriaceae aerogenes; assay: in vitro antibacterial activity (MIC), Enterobacteriaceae aerogenes; format: cell-based; conditions: gram-negative; 24 hours
Protocol: as §1

rumen fluid = assay: in vitro rumen technique, propionic acid production; conditions: 39° C., about 16 hours; for increase in propionic acid production: 10 mcg/ml., separate experiment with CP-70,228; for increase in the production of propionic acid over control: 10 micrograms per milliliter, experiment with UK-58,852
Eimeria tenella = assay: in vivo anticoccidial activity in chickens, Eimeria tenella; conditions: for AVERAGE DEGREE OF INFECTION / WEIGHT GAIN (PERCENT): chickens, after six days
Eimeria acervulina = assay: in vivo anticoccidial activity in chickens, Eimeria acervulina; conditions: for AVERAGE DEGREE OF INFECTION / WEIGHT GAIN (PERCENT): chickens, after five days
Clostridium perfringens = format: cell-based; conditions: strain 10A009; 24 hours
E. maxima = assay: in vivo anticoccidial activity in chickens, E. maxima; conditions: diet of chickens, 25 to 150 ppm
E. brunetti = assay: in vivo anticoccidial activity in chickens, E. brunetti; conditions: diet of chickens, 25 to 150 ppm
E. necatrix = assay: in vivo anticoccidial activity in chickens, E. necatrix; conditions: diet of chickens, 25 to 150 ppm
[4] = diet of chickens, 25 to 150 ppm

COC1CCC(OC2CC(C3OC(C)(OC)C(C)CC3C)OC2C2(C)CCC(C3(C)CCC4(CC(O)C(C)C(C(C)C5OC(O)(CC(=O)[O-])C(C)C(OC6CCC(OC)C(C)O6)C5OC)O4)O3)O2)OC1C.[Na+] (centres unmarked) [CP-70,228 Sodium Salt]
MIC (Staphylococcus aureus; strain 01A005): 3.12 µg/mL | MIC (Staphylococcus aureus; strain 01A052): 3.12 µg/mL | MIC (Staphylococcus aureus; strain 01A110): 3.12 µg/mL | MIC (Staphylococcus aureus; strain 01A400): 6.25 µg/mL | MIC (Streptococcus faecalis): 50 µg/mL | MIC (Streptococcus pyogenes): 0.10 µg/mL | MIC (Actinomyces pyogenes): 0.34 µg/mL | MIC ([1]; strain 54B004): > 100 µg/mL | MIC (Pasteurella multocida): > 100 µg/mL | MIC (Bacteroides fragilis): 12.5 µg/mL | MIC [2]: > 100 µg/mL | MIC (Treponema hyodysenteriae): 1.58 µg/mL | MIC (Escherischia coli): > 50 µg/mL | MIC (Pseudomonas aeruginosa): > 50 µg/mL | MIC (Klebsiella pneumoniae): > 50 µg/mL | MIC (Serratia marcescens): > 50 µg/mL | MIC [3]: > 50 µg/mL

COC1CCC(OC2CC(C3OC(C)(OC)C(C)CC3C)OC2C2(C)CCC(C3(C)CCC4(CC(O)C(C)C(C(C)C5OC(O)(CC(=O)O)C(C)C(OC6CCC(OC)C(C)O6)C5OC)O4)O3)O2)OC1C (centres unmarked) [CP-70,228]
increase in propionic acid production (rumen fluid): about 30% | AVERAGE DEGREE OF INFECTION (Eimeria tenella; 25 ppm in feed): 2.7 | WEIGHT GAIN (PERCENT) (Eimeria tenella; 25 ppm in feed): 80% | AVERAGE DEGREE OF INFECTION (Eimeria tenella; 50 ppm in feed): 1.3 | WEIGHT GAIN (PERCENT) (Eimeria tenella; 50 ppm in feed): 103% | AVERAGE DEGREE OF INFECTION (Eimeria tenella; 75 ppm in feed): 0.3 | WEIGHT GAIN (PERCENT) (Eimeria tenella; 75 ppm in feed): 63% | AVERAGE DEGREE OF INFECTION (Eimeria tenella; 100 ppm in feed): 0.0 | WEIGHT GAIN (PERCENT) (Eimeria tenella; 100 ppm in feed): 95% | AVERAGE DEGREE OF INFECTION (Eimeria acervulina; 25 ppm in feed): 1.2 | WEIGHT GAIN (PERCENT) (Eimeria acervulina; 25 ppm in feed): 40% | AVERAGE DEGREE OF INFECTION (Eimeria acervulina; 50 ppm in feed): 0.0 | WEIGHT GAIN (PERCENT) (Eimeria acervulina; 50 ppm in feed): 70% | AVERAGE DEGREE OF INFECTION (Eimeria acervulina; 75 ppm in feed): 0.0 | WEIGHT GAIN (PERCENT) (Eimeria acervulina; 75 ppm in feed): 100% | AVERAGE DEGREE OF INFECTION (Eimeria acervulina; 100 ppm in feed): 0.0 | WEIGHT GAIN (PERCENT) (Eimeria acervulina; 100 ppm in feed): 100%

COC1CCC(OC2CC(C3OC(C)(OC)C(C)CC3C)OC2C2(C)CCC(C3(C)CCC4(CC(OC)C(C)C(C(C)C5OC(O)(CC(=O)[O-])C(C)C(OC6CCC(OC)C(C)O6)C5OC)O4)O3)O2)OC1C.[Na+] (centres unmarked) [CP-70,828 Sodium Salt]
MIC (Staphylococcus aureus; strain 01A005): 25 µg/mL | MIC (Staphylococcus aureus; strain 01A052): 25 µg/mL | MIC (Staphylococcus aureus; strain 01A110): 25 µg/mL | MIC (Staphylococcus aureus; strain 01A400): 25 µg/mL | MIC (Streptococcus faecalis): > 50 µg/mL | MIC (Streptococcus pyogenes): 3.12 µg/mL | MIC (Escherischia coli): > 50 µg/mL | MIC (Pseudomonas aeruginosa): > 50 µg/mL | MIC (Klebsiella pneumoniae): > 50 µg/mL | MIC (Serratia marcescens): > 50 µg/mL | MIC [3]: > 50 µg/mL

COC1CCC(OC2CC(C3OC(C)(O)C(C)CC3C)OC2C2(C)CCC(C3(C)CCC4(CC(O)C(C)C(C(C)C5OC(O)(CC(=O)[O-])C(C)C(OC6CCC(OC)C(C)O6)C5OC)O4)O3)O2)OC1C.[Na+] (centres unmarked) [UK-58,852 (sodium salt)]
MIC (Staphylococcus aureus; strain 01A005): 3.12 µg/mL | MIC (Staphylococcus aureus; strain 01A052): 3.12 µg/mL | MIC (Staphylococcus aureus; strain 01A110): 3.12 µg/mL | MIC (Staphylococcus aureus; strain 01A400): 6.25 µg/mL | MIC (Streptococcus faecalis): > 50 µg/mL | MIC (Streptococcus pyogenes): 0.05 µg/mL | MIC (Actinomyces pyogenes): 0.08 µg/mL | MIC ([1]; strain 44B004): > 25 µg/mL | MIC (Pasteurella multocida): > 200 µg/mL | MIC (Clostridium perfringens): 0.79 µg/mL | MIC (Bacteroides fragilis): 0.10 µg/mL | MIC [2]: > 25 µg/mL | MIC (Treponema hyodysenteriae): 0.39 µg/mL | MIC (Escherischia coli): > 50 µg/mL | MIC (Pseudomonas aeruginosa): > 50 µg/mL | MIC (Klebsiella pneumoniae): > 50 µg/mL | MIC (Serratia marcescens): > 50 µg/mL | MIC [3]: > 50 µg/mL

COC1CCC(OC2CC(C3OC(C)(O)C(C)CC3C)OC2C2(C)CCC(C3(C)CCC4(CC(O)C(C)C(C(C)C5OC(O)(CC(=O)O)C(C)C(OC6CCC(OC)C(C)O6)C5OC)O4)O3)O2)OC1C (centres unmarked) [UK-58,852]
increase in the production of propionic acid over control (rumen fluid): about 93% | controlling infections due to E. maxima (E. maxima): effective | controlling infections due to E. brunetti (E. brunetti): effective | controlling infections due to E. necatrix (E. necatrix): effective | AVERAGE DEGREE OF INFECTION (Eimeria tenella; 25 ppm in feed): 0.0 | WEIGHT GAIN (PERCENT) (Eimeria tenella; 25 ppm in feed): 93% | AVERAGE DEGREE OF INFECTION (Eimeria tenella; 50 ppm in feed): 0.0 | WEIGHT GAIN (PERCENT) (Eimeria tenella; 50 ppm in feed): 45% | AVERAGE DEGREE OF INFECTION (Eimeria tenella; 75 ppm in feed): 0.0 | WEIGHT GAIN (PERCENT) (Eimeria tenella; 75 ppm in feed): 28% | AVERAGE DEGREE OF INFECTION (Eimeria tenella; 100 ppm in feed): 0.0 | WEIGHT GAIN (PERCENT) (Eimeria tenella; 100 ppm in feed): 8% | AVERAGE DEGREE OF INFECTION (Eimeria tenella; 125 ppm in feed): 0.0 | WEIGHT GAIN (PERCENT) (Eimeria tenella; 125 ppm in feed): 4% | AVERAGE DEGREE OF INFECTION (Eimeria tenella; 150 ppm in feed): 0.0 | WEIGHT GAIN (PERCENT) (Eimeria tenella; 150 ppm in feed): 0% | controlling infections due to Eimeria tenella (Eimeria tenella; [4]): effective | AVERAGE DEGREE OF INFECTION (Eimeria acervulina; 25 ppm in feed): 0.0 | WEIGHT GAIN (PERCENT) (Eimeria acervulina; 25 ppm in feed): 98% | AVERAGE DEGREE OF INFECTION (Eimeria acervulina; 50 ppm in feed): 0.0 | WEIGHT GAIN (PERCENT) (Eimeria acervulina; 50 ppm in feed): 62% | AVERAGE DEGREE OF INFECTION (Eimeria acervulina; 75 ppm in feed): 0.0 | WEIGHT GAIN (PERCENT) (Eimeria acervulina; 75 ppm in feed): 0% | AVERAGE DEGREE OF INFECTION (Eimeria acervulina; 100 ppm in feed): 0.0 | WEIGHT GAIN (PERCENT) (Eimeria acervulina; 100 ppm in feed): 23% | AVERAGE DEGREE OF INFECTION (Eimeria acervulina; 125 ppm in feed): 0.0 | WEIGHT GAIN (PERCENT) (Eimeria acervulina; 125 ppm in feed): 0% | AVERAGE DEGREE OF INFECTION (Eimeria acervulina; 150 ppm in feed): 0.0 | WEIGHT GAIN (PERCENT) (Eimeria acervulina; 150 ppm in feed): 0% | controlling infections due to E. acervulina (Eimeria acervulina; [4]): effective

CC[C@@H](C(=O)[C@@H](C)[C@@H](O)[C@H](C)[C@@H]1O[C@@H]([C@@H](CC)C(=O)O)CC[C@@H]1C)[C@H]1O[C@]2(C=C[C@@H](O)[C@]3(CC[C@@](C)([C@H]4CC[C@](O)(CC)[C@H](C)O4)O3)O2)[C@H](C)C[C@@H]1C [salinomycin, reference compound]
increase in propionic acid production (rumen fluid): about 40% | increase in the production of propionic acid over control (rumen fluid): ~88%
